In patent publication US10829473B2, “Modulators of the cystic fibrosis transmembrane conductance regulator protein and methods of use” (AbbVie Overseas S.Á.R.L., priority 2017, dated 2020):
pEC50: −log10 of the molar value. Where two headings read alike, the source gives them in different places. Marks after values point to notes of the source that are not given here.

Target: T1, F508delCFTR (Homo sapiens, UniProt P13569, DEL508-508)
T1 construct: expressed in transfected cells; host or cells: CFBE41o- human lung derived epithelial cells (CFBE41o-F508delCFTR-HRP), doxycycline-inducible
T1 sequence (P13569 with tags, fused parts or gaps DEL508-508): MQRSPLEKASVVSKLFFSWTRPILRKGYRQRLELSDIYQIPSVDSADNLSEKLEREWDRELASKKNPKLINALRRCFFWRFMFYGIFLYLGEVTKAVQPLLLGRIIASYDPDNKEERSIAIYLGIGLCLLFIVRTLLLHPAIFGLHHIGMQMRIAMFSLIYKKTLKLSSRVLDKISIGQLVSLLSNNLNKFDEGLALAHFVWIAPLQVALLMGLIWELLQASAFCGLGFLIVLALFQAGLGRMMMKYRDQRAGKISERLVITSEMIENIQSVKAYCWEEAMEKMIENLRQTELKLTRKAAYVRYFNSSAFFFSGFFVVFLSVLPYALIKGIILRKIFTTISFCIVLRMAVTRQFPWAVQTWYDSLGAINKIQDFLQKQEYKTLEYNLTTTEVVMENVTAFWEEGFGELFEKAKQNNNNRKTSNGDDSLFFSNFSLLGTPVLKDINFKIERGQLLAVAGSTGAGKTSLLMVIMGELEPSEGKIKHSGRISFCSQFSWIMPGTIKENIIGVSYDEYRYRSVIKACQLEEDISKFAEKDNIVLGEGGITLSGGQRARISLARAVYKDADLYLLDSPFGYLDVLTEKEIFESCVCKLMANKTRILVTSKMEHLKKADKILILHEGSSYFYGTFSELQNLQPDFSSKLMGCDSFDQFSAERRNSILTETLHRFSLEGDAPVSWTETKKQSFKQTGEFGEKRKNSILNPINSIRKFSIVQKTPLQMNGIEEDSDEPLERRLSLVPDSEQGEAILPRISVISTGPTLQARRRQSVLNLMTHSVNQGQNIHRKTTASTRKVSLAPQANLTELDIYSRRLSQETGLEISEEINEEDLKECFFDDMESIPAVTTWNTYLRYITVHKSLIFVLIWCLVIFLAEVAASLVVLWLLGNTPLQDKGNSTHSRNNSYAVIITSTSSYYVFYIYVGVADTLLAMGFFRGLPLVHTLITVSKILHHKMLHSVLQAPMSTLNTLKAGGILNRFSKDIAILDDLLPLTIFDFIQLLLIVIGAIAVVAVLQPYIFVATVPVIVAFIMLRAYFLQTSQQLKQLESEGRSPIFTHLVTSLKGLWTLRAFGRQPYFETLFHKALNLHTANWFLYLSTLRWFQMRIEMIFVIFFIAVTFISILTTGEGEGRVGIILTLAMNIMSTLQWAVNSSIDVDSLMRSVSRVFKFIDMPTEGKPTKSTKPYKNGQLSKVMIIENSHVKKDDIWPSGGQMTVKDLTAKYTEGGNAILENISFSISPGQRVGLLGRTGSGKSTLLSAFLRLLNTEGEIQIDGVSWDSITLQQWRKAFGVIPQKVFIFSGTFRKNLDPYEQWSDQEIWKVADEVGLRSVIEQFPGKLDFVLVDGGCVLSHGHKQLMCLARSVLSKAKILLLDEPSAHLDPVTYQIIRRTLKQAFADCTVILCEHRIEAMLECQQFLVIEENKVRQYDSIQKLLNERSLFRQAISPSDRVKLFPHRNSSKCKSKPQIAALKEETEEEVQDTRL
Experiment: Cell Surface Expression-Horse Radish Peroxidase (CSE-HRP) Assay;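 for EC50 (with co-corrector): co-corrector chromenyl benzoic acid corrector at 2 or 3 µM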;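 for Maximum % activity (without co-corrector): % of on-plate positive control chromenyl benzoic acid corrector at 2 or 3 µM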
Assay type: cell-based
Settings: for Maximum % activity (with co-corrector) / Emax: maximum at any tested concentration; for Emax: read-out: Maximum % activity (without co-corrector)
Procedure, shortened: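 Corrector compounds were given as 8-point 3-fold series from 20 or 30 μM, with or without a 2 μM co-corrector, for 18-24 h at 33 °C. Surface HRP was read by luminol luminescence as % of positive control; variable-Hill-slope sigmoidal fitting gave EC50 from triplicate plates.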

[1] = test compound alone, without co-corrector, read-out: EC50 (without co-corrector)
[2] = with co-corrector, read-out: EC50 (with co-corrector)
[3] = test compound with co-corrector
[4] = test compound with co-corrector, read-out: EC50 (with co-corrector)
[5] = test compound without co-corrector
[6] = test compound without co-corrector, read-out: EC50 (without co-corrector)

pEC50 [1] | Maximum % activity (with co-corrector) (with co-corrector) | pEC50 [2] | Emax (without co-corrector) [%] | Maximum % activity (with co-corrector) [3] | pEC50 [4] | Emax [5] [%] | pEC50 [6] | EC50 (with co-corrector) [3] | EC50 (without co-corrector) [5] | SMILES
5.00 to 5.52 | +++ (≥350) | > 5.52 | > 150 |  |  |  |  |  |  | COc1cccc(C)c1C1(C(=O)NS(=O)(=O)c2cccc3c2CCCN3)CC1 [II-53]
5.00 to 5.52 | +++ (≥350) | 5.00 to 5.52 | 50 to 150 |  |  |  |  |  |  | Cc1ccccc1S(=O)(=O)NC(=O)C1(c2ccc(Cl)cc2Cl)CC1 [Example III-87, 1-(2,4-dichlorophenyl)-N-(2-methylbenzene-1-sulfonyl)cyclopropane-1-carboxamide]
> 5.52 | +++ (≥350) | > 5.52 | > 150 |  |  |  |  |  |  | Cc1ccc(OC(F)F)c(C2(C(=O)NS(=O)(=O)c3cccc4nc(C)ccc34)CC2)c1 [II-101]
 | +++ (≥350) |  | > 150 |  |  |  |  |  |  | COc1ccc(C2CC2)cc1C1(C(=O)NS(=O)(=O)c2cccc3ncccc23)CC1 [II-57]
 |  |  |  | ++ (≥150 and <350) |  | < 50 |  | ++^a | ++^a | COc1ccc(C2(C(=O)NS(=O)(=O)c3cccc4c3CCCN4)CC2)c(C)n1 [GIII-15]
> 5.52 | +++ (≥350) | > 5.52 | > 150 |  |  |  |  |  |  | COc1ncc(C(F)(F)F)cc1C1(C(=O)NS(=O)(=O)c2cccc3ccn(C)c23)CC1 [II-17]
< 5.00 | + (<150) | < 5.00 | < 50 |  |  |  |  |  |  | O=C(O)c1ccccc1S(=O)(=O)NC(=O)C1(c2ccc(Cl)cc2Cl)CC1 [Example III-67]
< 5.00 | + (<150) | 5.00 to 5.52 | < 50 |  |  |  |  |  |  | O=C(NS(=O)(=O)c1ccc(Cl)cc1)C1(c2ccc(Cl)cc2Cl)CC1 [Example III-9, N-(4-chlorobenzene-1-sulfonyl)-1-(2,4-dichlorophenyl)cyclopropane-1-carboxamide]
 |  |  |  | +++ (≥350) | 5.00 to 5.52 | > 150 | 5.00 to 5.52 |  |  | COCCOc1cnc(OC)cc1C1(C(=O)NS(=O)(=O)c2cccc3[nH]ccc23)CC1 [GII-45, N-(1H-indole-4-sulfonyl)-1-[2-methoxy-5-(2-methoxyethoxy)pyridin-4-yl]cyclopropane-1-carboxamide]
5.00 to 5.52 | +++ (≥350) | 5.00 to 5.52 | > 150 |  |  |  |  |  |  | COc1cccc(C2(C(=O)NS(=O)(=O)c3cccc4ccccc34)CC2)c1 [II-1]
 |  |  |  | ++ (≥150 and <350) | 5.00 to 5.52 | < 50 | < 5.00 |  |  | CCc1ccncc1C1(C(=O)NS(=O)(=O)c2cccc3c2CCCN3)CC1 [GII-21, 1-(4-ethylpyridin-3-yl)-N-(1,2,3,4-tetrahydroquinoline-5-sulfonyl)cyclopropane-1-carboxamide]
< 5.00 | + (<150) | < 5.00 | < 50 |  |  |  |  |  |  | CCC(CC)S(=O)(=O)NC(=O)C1(c2ccccc2)CC1 [Example III-116, N-(pentane-3-sulfonyl)-1-phenylcyclopropane-1-carboxamide]
< 5.00 | +++ (≥350) | 5.00 to 5.52 | > 150 |  |  |  |  |  |  | O=C(NS(=O)(=O)c1cccc2ccccc12)C1(c2ccc3c(c2)OC(F)(F)O3)CC1 [Example III-91, 1-(2,2-difluoro-2H-1,3-benzodioxol-5-yl)-N-(naphthalene-1-sulfonyl)cyclopropane-1-carboxamide]
> 5.52 | +++ (≥350) | > 5.52 | > 150 |  |  |  |  |  |  | Cc1ccc(OC(C)C)c(C2(C(=O)NS(=O)(=O)c3cccc4[nH]ccc34)CC2)c1 [II-79]
 |  |  |  | ++ (≥150 and <350) |  | < 50 | < 5.00 | ++^a |  | CC(C)Oc1cnc(Cl)c(C2(C(=O)NS(=O)(=O)c3cccc4ncccc34)CC2)c1 [GIII-13]
 |  |  |  | ++ (≥150 and <350) |  | 50 to 150 |  | ++^a | ++^a | COc1cc(C2(C(=O)NS(=O)(=O)c3cccc4ncccc34)CC2)c(OCC(F)F)cn1 [GIII-18]
> 5.52 | +++ (≥350) | > 5.52 | > 150 |  |  |  |  |  |  | CCc1ccc(OC)c(C2(C(=O)NS(=O)(=O)c3cccc4nc(N)ccc34)CC2)c1 [II-71]

Second part, the molecule before the results:

SMILES | pEC50 [1] | Maximum % activity (with co-corrector) (with co-corrector) | pEC50 [2] | Emax (without co-corrector) [%] | Maximum % activity (with co-corrector) [3] | pEC50 [4] | Emax [5] [%] | pEC50 [6] | EC50 (with co-corrector) [3] | EC50 (without co-corrector) [5]
COc1ncc(C2CCC2)cc1C1(C(=O)NS(=O)(=O)c2cccc3ncccc23)CC1 [Example I-4, 1-(5-cyclobutyl-2-methoxypyridin-3-yl)-N-(quinoline-5-sulfonyl)cyclopropane-1-carboxamide] | > 5.52 | +++ (≥350) | > 5.52 | > 150 |  |  |  |  |  | 
COCCOc1ncc(C2CCC2)cc1C1(C(=O)NS(=O)(=O)c2cccc3ncccc23)CC1 [Example GI-111, 1-[5-cyclobutyl-2-(2-methoxyethoxy)pyridin-3-yl]-N-(quinoline-5-sulfonyl)cyclopropane-1-carboxamide] |  |  |  |  | +++ (≥350) | > 5.52 | > 150 | > 5.52 |  | 
CO[C@H](C)COc1ccc(C)cc1C1(C(=O)NS(=O)(=O)c2cccc3ncccc23)CC1 [Example I-115, 1-{2-[(2R)-2-methoxypropoxy]-5-methylphenyl}-N-(quinoline-5-sulfonyl)cyclopropane-1-carboxamide] | > 5.52 | +++ (≥350) | > 5.52 | > 150 |  |  |  |  |  | 
CCOc1ccc(C)cc1C1(C(=O)NS(=O)(=O)c2cccc3ncccc23)CC1 [Example I-82, 1-(2-ethoxy-5-methylphenyl)-N-(quinoline-5-sulfonyl)cyclopropane-1-carboxamide] | > 5.52 | +++ (≥350) | > 5.52 | > 150 |  |  |  |  |  | 
CCc1cnc(OC(C)C)c(C2(C(=O)NS(=O)(=O)c3cccc4nc(C)ccc34)CC2)c1 [Example GI-40, 1-{5-ethyl-2-[(propan-2-yl)oxy]pyridin-3-yl}-N-(2-methylquinoline-5-sulfonyl)cyclopropane-1-carboxamide] |  |  |  |  | +++ (≥350) | > 5.52 | > 150 | > 5.52 |  | 
COc1cc(C2(C(=O)NS(=O)(=O)c3cccc4ncccc34)CC2)c(OC(C)C)cn1 [Example GI-16, 1-{2-methoxy-5-[(propan-2-yl)oxy]pyridin-4-yl}-N-(quinoline-5-sulfonyl)cyclopropane-1-carboxamide] | 5.00 to 5.52 | +++ (≥350) | > 5.52 | > 150 |  |  |  |  |  | 
COc1ccc(C2CC2)cc1C1(C(=O)NS(=O)(=O)c2cccc3c2CCCN3)CCC1 [Example I-27, 1-(5-cyclopropyl-2-methoxyphenyl)-N-(1,2,3,4-tetrahydroquinoline-5-sulfonyl)cyclobutane-1-carboxamide] | 5.00 to 5.52 | +++ (≥350) | > 5.52 | > 150 |  |  |  |  |  | 
CNC1(c2ccc(OC)c(C3(C(=O)NS(=O)(=O)c4cccc5ncccc45)CC3)c2)CC1 [Example I-85, 1-{2-methoxy-5-[1-(methylamino)cyclopropyl]phenyl}-N-(quinoline-5-sulfonyl)cyclopropane-1-carboxamide] | < 5.00 | ++ (≥150 and <350) | 5.00 to 5.52 | < 50 |  |  |  |  |  | 
CCOc1cccc(OC)c1C1(C(=O)NS(=O)(=O)c2cccc3ncccc23)CC1 [Example I-45, 1-(2-ethoxy-6-methoxyphenyl)-N-(quinoline-5-sulfonyl)cyclopropane-1-carboxamide] | > 5.52 | +++ (≥350) | > 5.52 | > 150 |  |  |  |  |  | 
COc1ccc(C2CCC2)cc1C1(C(=O)NS(=O)(=O)c2cccc3[nH]ccc23)CC1 [Example I-55, 1-(5-cyclobutyl-2-methoxyphenyl)-N-(1H-indole-4-sulfonyl)cyclopropane-1-carboxamide] | > 5.52 | +++ (≥350) | > 5.52 | > 150 |  |  |  |  |  | 
O=C(NS(=O)(=O)c1cccc2ncccc12)C1(c2cc(C3CC3)cnc2N2CCCC2)CC1 [Example GI-32, 1-[5-cyclopropyl-2-(pyrrolidin-1-yl)pyridin-3-yl]-N-(quinoline-5-sulfonyl)cyclopropane-1-carboxamide] |  |  |  |  | +++ (≥350) | > 5.52 | > 150 | 5.00 to 5.52 |  | 
COc1ccc(C)c(OC)c1C1(C(=O)NS(=O)(=O)c2cccc3nc(C)ccc23)CC1 [Example I-43, 1-(2,6-dimethoxy-3-methylphenyl)-N-(2-methylquinoline-5-sulfonyl)cyclopropane-1-carboxamide] | > 5.52 | +++ (≥350) | > 5.52 | > 150 |  |  |  |  |  | 
CCc1cnc(OCC(C)C)c(C2(C(=O)NS(=O)(=O)c3cccc4nc(C)ccc34)CC2)c1 [Example GI-46, 1-[5-ethyl-2-(2-methylpropoxy)pyridin-3-yl]-N-(2-methylquinoline-5-sulfonyl)cyclopropane-1-carboxamide] |  |  |  |  | +++ (≥350) | > 5.52 | > 150 | > 5.52 |  | 
